# Earlier results as cited in US20100166671A1, “ORGANIC COMPOUNDS” (priority 2006, published 2010).
# Settings: single administration of a metered dose, aerosol formulation, treating asthma
structure (smiles),measurement,value
"C[N+]1(C)CCC(OC(=O)C(O)(c2ccccc2)C2CCCC2)C1.[Br-] (stereo not shown) [glycopyrrolate, 3-[(cyclopentyl-hydroxyphenylacetyl)oxy]-1,1-dimethylpyrrolidinium bromide]",duration of bronchodilation,up to 12 hours
